Data on two compounds can be found in patent US12239733B2, “Treatment of protein aggregation myopathic and neurodegenerative diseases by parenteral administration of trehalose” (Seelos Therapeutics, Inc., priority 2013, dated 2025).

The structures appear in SMILES notation. “Also recorded” adds a separate entry of the source.

The nature of series [1]: Preclinical pharmacokinetic study: plasma and muscle concentrations of trehalose after intravenous bolus (IV) and oral gavage (PO). Format: in vivo, male Sprague-Dawley (SD) rats. As for the experimental part:
The plasma and muscle concentrations of trehalose in male Sprague-Dawley (SD) rats was determined after intravenous bolus (IV) and oral gavage (PO) administration.
The study included 42 SD rats (male, 250 to 350 grams in weight, the Shanghai SLAC Laboratory Animal Co. Ltd.). Animals were administered with a volume of 5 ml/kg trehalose formulation (trehalose dihydrate in sterilized water at 200 mg/mL) to achieve a nominal dose of 1 gr/kg, intravenously or orally.
Blood samples were collected after each dose administration and processed for plasma. Muscle samples (hind leg muscle) were collected and homogenized. The concentrations of trehalose in plasma and muscle homogenate samples were analyzed by qualified bioanalytical LC/MS/MS methods.
Plasma concentration data of trehalose was subjected to a non compartmental pharmacokinetic analysis using WinNonlin software program (version 6.3, Pharsight, Mountain View, CA). Zero-time intercept concentration (C0), volume of distribution (Vdss), Clearance (Cl), peak plasma concentrations (Cmax) and the corresponding peak times (Tmax), terminal half-life (T½), mean residence time (MRT) from time zero to the last time point (MRT0-last), MRT from time zero to infinity (MRT0-inf), the area under the plasma concentration-time curve (AUC) from time zero to the last time point (AUC0-last) and AUC from time zero extrapolated to infinity (AUC0-inf) were calculated using the linear/log trapezoidal rule. Nominal sampling times were used to calculate all pharmacokinetic parameters since there was not any deviation larger than 5% between the actual and nominal sampling times.
The values of muscle to plasma concentration and AUC ratio (M/P ratio) were both calculated.

In the next series the test system is transgenic HD mice. The settings on record: oral, cited from earlier work.
For series [2] the following is noted: oral (ingested); cited from earlier work.
In another series the test system is transgenic OPMD mice. The settings on record: cited from earlier work.
The test system of another series is healthy volunteers. The settings on record: cited from earlier work.
Where [3] appears, read: 0.2%-5% trehalose in drinking water, 5-9 weeks.

With `OC[C@H]1O[C@H](O[C@H]2O[C@H](CO)[C@@H](O)[C@H](O)[C@H]2O)[C@H](O)[C@@H](O)[C@@H]1O` [trehalose dihydrate], in series [1] (1000 mg/kg IV or PO, male SD rats), the tolerability in rats entry is “well tolerated”.

Consider `OC[C@H]1O[C@H](O[C@H]2O[C@H](CO)[C@@H](O)[C@H](O)[C@H]2O)[C@H](O)[C@@H](O)[C@@H]1O` [trehalose, α-G-glucopyranosyl α-D-glucopyranoside], for which, in the series with transgenic HD mice (setting [3]), the “motor dysfunction / HD-related motor symptoms” value is reported as “improve motor dysfunction; also recorded: improvement of HD-related motor symptoms”; the “polyglutamine / huntingtin aggregates” value was “reduce polyglutamine aggregates; also recorded: inhibition of formation of intra-nuclear huntingtin aggregates in the brain and liver”. For the same compound, the survival entry in the series with transgenic HD mice (HD mouse model) is given as “extend survival”. For the same compound, in series [2], the “share of ingested trehalose absorbed into the blood stream” value is “Less than 0.5%”. In series [1] (male, Sprague-Dawley, rat, in vivo, iv, 1000 mg/kg), this compound registered an AUC0-inf/AUC0-last of 100%. In series [1] (rat, in vivo, iv, 1000 mg/kg), the AUC0-inf amounted to 183000 ng·h/g. For the same compound, in series [1] (rat, in vivo, po), the “plasma concentration of trehalose after oral administration” value is listed as “undetectable”. For the same compound, the “OPMD onset, phenotype, aggregate formation, cell death” value in the series on transgenic OPMD mice (oral trehalose) is “delay the OPMD onset, attenuate the disease phenotype, decrease polyalanine protein aggregate formation and decrease cell death”. Moreover, the “aggregation formation and toxicity of mutant PABPN1 in myocytes” value with transgenic OPMD mice (oral, 2% trehalose in drinking water, 4-6 months) is “significantly reduce aggregation formation and toxicity of the mutant PABPN1 in myocytes”. The safety issues reported entry in the series on healthy volunteers (healthy volunteers, oral doses from 10 to 60 gr) is recorded as “mild abdominal symptoms”. The “gastrointestinal effects of high oral amounts” value in the series on healthy volunteers (oral, exceeding 40-50 gram per day, higher than 50 g a day in humans) was “frequently cause diarrhea, bloating and discomfort; also recorded: causes diarrhea and bloating”.
